Reference: article PMC7531004, “Discovery of gramicidin A analogues with altered activities by multidimensional screening of a one-bead-one-compound library” (Nature Communications, 2020)
Where a SMILES comes first, the peptide text is derived from it. [ ]: non-standard residue; d: D form. The star is where a group is joined. NHCH2CH2OH = OCCN*; For = O=C*

Columns and labels:
[1] = H+/Na+ transport assay of bead-derived peptides (one-point); assay type: biochemical; set-up: key: relative activity; mean of two control wells = 1.00; conditions: bead-derived peptide solution, EYPC/EYPG LUVs;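 further: relative to parent gramicidin A activity set to 1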
Summary of the method: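 H+/Na+ transport is monitored through pyranine fluorescence in freshly extruded LUVs after a 30-min room-temperature vortex with each library peptide at a single concentration. Signals are normalized to detergent (Triton X-100) and untreated controls.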

[2] = test system: Streptococcus pyogenes SSI-9; experiment: Antibacterial activity assay of bead-derived peptides (three concentrations); assay type: cell-based; set-up: key: +++: inhibition by the 640-fold diluted peptide solution; ++: inhibition by the 160-fold diluted solution; +: inhibition by the 40-fold diluted solution; -: no inhibition; conditions: S. pyogenes, bead-derived peptide solution, three concentrations
Summary of the method: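 Three stock dilutions per peptide (none, 4-fold, 16-fold in DMSO) are screened in 96-well format. The medium is blood-supplemented cation-adjusted MHB, inoculated with 2 × 10^5 CFU S. pyogenes SSI-9. Growth is read as cell precipitation at 18 h, 37 °C.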

[3] = test system: P388 mouse leukemia cells; conditions: 92 h
Summary of the method: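 First, library peptide stocks are diluted 250-fold in RPMI1640 with 10% heat-inactivated FBS. Next, they are mixed with P388 cells to give 1 × 10^4 cells/mL and incubated 92 h at 37 °C, 5% CO2. Finally, viability (%) is scored by WST-1 absorbance at 415 nm.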

Compound	H+/Na+ transport activity normalized against the value of 1 (1.00) [1]	antibacterial activity [2]	cell viability/% [3] [%]
CC(C)C[C@@H](NC(=O)[C@H](C)NC(=O)[C@H](NC(=O)[C@H](C)NC(=O)CNC(=O)[C@@H](NC=O)C(C)C)[C@H](C)O)C(=O)N[C@H](C(=O)N[C@H](CC(C)C)C(=O)N[C@@H](Cc1c[nH]c2ccccc12)C(=O)N[C@@H](C(=O)N[C@@H](Cc1c[nH]c2ccccc12)C(=O)N[C@@H](C(=O)N[C@@H](Cc1c[nH]c2ccccc12)C(=O)N[C@H](CC(C)C)C(=O)N[C@@H](Cc1c[nH]c2ccccc12)C(=O)NCCO)C(C)C)C(C)C)C(C)C [compound 2242] (For-VGA[dT]A[dL]V[dL]W[dV]W[dV]W[dL]W-NHCH2CH2OH)	1.15	-	100.0
CC(C)C[C@@H](NC(=O)[C@H](C)NC(=O)CNC(=O)[C@@H](NC=O)C(C)C)C(=O)N[C@@H](C)C(=O)N[C@H](CC(C)C)C(=O)N[C@H](C(=O)N[C@H](CC(C)C)C(=O)N[C@@H](Cc1c[nH]c2ccccc12)C(=O)N[C@H](CC(C)C)C(=O)N[C@@H](Cc1c[nH]c2ccccc12)C(=O)N[C@@H](C(=O)N[C@@H](Cc1c[nH]c2ccccc12)C(=O)N[C@H](CC(C)C)C(=O)N[C@@H](Cc1c[nH]c2ccccc12)C(=O)NCCO)[C@H](C)O)C(C)C [compound 2283] (For-VGA[dL]A[dL]V[dL]W[dL]W[dT]W[dL]W-NHCH2CH2OH)	1.07	-	100.0
CNC(=O)C[C@@H](NC(=O)[C@@H](NC(=O)[C@@H](CC(C)C)NC(=O)[C@H](C)NC(=O)[C@@H](CC(C)C)NC(=O)[C@H](C)NC(=O)CNC(=O)[C@@H](NC=O)C(C)C)C(C)C)C(=O)N[C@@H](Cc1c[nH]c2ccccc12)C(=O)N[C@H](CC(C)C)C(=O)N[C@@H](Cc1c[nH]c2ccccc12)C(=O)N[C@H](CC(C)C)C(=O)N[C@@H](Cc1c[nH]c2ccccc12)C(=O)N[C@H](CC(C)C)C(=O)N[C@@H](Cc1c[nH]c2ccccc12)C(=O)NCCO [compound 2444] (For-VGA[dL]A[dL]V[dD](NHMe)W[dL]W[dL]W[dL]W-NHCH2CH2OH)	1.32	-	100.0
CNC(=O)C[C@@H](NC(=O)[C@H](Cc1c[nH]c2ccccc12)NC(=O)[C@@H](CC(C)C)NC(=O)[C@H](Cc1c[nH]c2ccccc12)NC(=O)[C@H](NC(=O)[C@H](Cc1c[nH]c2ccccc12)NC(=O)[C@@H](CC(C)C)NC(=O)[C@@H](NC(=O)[C@H](NC(=O)[C@H](C)NC(=O)[C@H](NC(=O)[C@H](C)NC(=O)CNC(=O)[C@@H](NC=O)C(C)C)C(C)C)C(C)C)C(C)C)C(C)C)C(=O)N[C@@H](Cc1c[nH]c2ccccc12)C(=O)NCCO [compound 2526] (For-VGA[dV]A[dV]V[dL]W[dV]W[dL]W[dD](NHMe)W-NHCH2CH2OH)	1.02	-	100.0
CC(C)C[C@@H](NC(=O)[C@H](Cc1c[nH]c2ccccc12)NC(=O)[C@H](NC(=O)[C@H](Cc1c[nH]c2ccccc12)NC(=O)[C@H](NC(=O)[C@H](Cc1c[nH]c2ccccc12)NC(=O)[C@@H](CC(C)C)NC(=O)[C@@H](NC(=O)[C@H](NC(=O)[C@H](C)NC(=O)[C@H](NC(=O)[C@H](C)NC(=O)CNC(=O)[C@@H](NC=O)C(C)C)[C@H](C)O)C(C)C)C(C)C)C(C)C)C(C)C)C(=O)N[C@@H](Cc1c[nH]c2ccccc12)C(=O)NCCO [compound 2532] (For-VGA[dT]A[dV]V[dL]W[dV]W[dV]W[dL]W-NHCH2CH2OH)	1.22	-	100.0
CC(C)C[C@@H](NC(=O)[C@H](Cc1c[nH]c2ccccc12)NC(=O)[C@H](NC(=O)[C@H](Cc1c[nH]c2ccccc12)NC(=O)[C@@H](CC(C)C)NC(=O)[C@@H](NC(=O)[C@H](NC(=O)[C@H](C)NC(=O)[C@H](NC(=O)[C@H](C)NC(=O)CNC(=O)[C@@H](NC=O)C(C)C)C(C)C)C(C)C)C(C)C)C(C)C)C(=O)N[C@@H](Cc1c[nH]c2ccccc12)C(=O)N[C@@H](C(=O)N[C@@H](Cc1c[nH]c2ccccc12)C(=O)NCCO)C(C)C [compound 2554] (For-VGA[dV]A[dV]V[dL]W[dV]W[dL]W[dV]W-NHCH2CH2OH)	1.06	++	9.2
CC(C)C[C@@H](NC(=O)[C@H](Cc1c[nH]c2ccccc12)NC(=O)[C@H](NC(=O)[C@H](Cc1c[nH]c2ccccc12)NC(=O)[C@H](NC(=O)[C@H](Cc1c[nH]c2ccccc12)NC(=O)[C@@H](CC(C)C)NC(=O)[C@@H](NC(=O)[C@H](NC(=O)[C@H](C)NC(=O)[C@H](NC(=O)[C@H](C)NC(=O)CNC(=O)[C@@H](NC=O)C(C)C)C(C)C)C(C)C)C(C)C)C(C)C)[C@H](C)O)C(=O)N[C@@H](Cc1c[nH]c2ccccc12)C(=O)NCCO [compound 2580] (For-VGA[dV]A[dV]V[dL]W[dV]W[dT]W[dL]W-NHCH2CH2OH)	1.00	-	100.0
CC(C)C[C@@H](NC(=O)[C@H](C)NC(=O)CNC(=O)[C@@H](NC=O)C(C)C)C(=O)N[C@@H](C)C(=O)N[C@H](CC(C)C)C(=O)N[C@H](C(=O)N[C@H](CC(C)C)C(=O)N[C@@H](Cc1c[nH]c2ccccc12)C(=O)N[C@H](CC(C)C)C(=O)N[C@@H](Cc1c[nH]c2ccccc12)C(=O)N[C@@H](C(=O)N[C@@H](Cc1c[nH]c2ccccc12)C(=O)N[C@@H](C(=O)N[C@@H](Cc1c[nH]c2ccccc12)C(=O)NCCO)C(C)C)C(C)C)C(C)C [compound 2718] (For-VGA[dL]A[dL]V[dL]W[dL]W[dV]W[dV]W-NHCH2CH2OH)	1.11	+	0.3
CNC(=O)C[C@@H](NC(=O)[C@H](Cc1c[nH]c2ccccc12)NC(=O)[C@H](NC(=O)[C@H](Cc1c[nH]c2ccccc12)NC(=O)[C@@H](CC(C)C)NC(=O)[C@H](Cc1c[nH]c2ccccc12)NC(=O)[C@@H](CC(C)C)NC(=O)[C@@H](NC(=O)[C@@H](CC(C)C)NC(=O)[C@H](C)NC(=O)[C@@H](CC(C)C)NC(=O)[C@H](C)NC(=O)CNC(=O)[C@@H](NC=O)C(C)C)C(C)C)C(C)C)C(=O)N[C@@H](Cc1c[nH]c2ccccc12)C(=O)NCCO [compound 2764] (For-VGA[dL]A[dL]V[dL]W[dL]W[dV]W[dD](NHMe)W-NHCH2CH2OH)	1.12	-	75.7
CC(C)C[C@@H](NC(=O)[C@H](C)NC(=O)[C@H](NC(=O)[C@H](C)NC(=O)CNC(=O)[C@@H](NC=O)C(C)C)C(C)C)C(=O)N[C@H](C(=O)N[C@H](CC(C)C)C(=O)N[C@@H](Cc1c[nH]c2ccccc12)C(=O)N[C@@H](C(=O)N[C@@H](Cc1c[nH]c2ccccc12)C(=O)N[C@@H](C(=O)N[C@@H](Cc1c[nH]c2ccccc12)C(=O)N[C@@H](C(=O)N[C@@H](Cc1c[nH]c2ccccc12)C(=O)NCCO)C(C)C)C(C)C)C(C)C)C(C)C [compound 2832] (For-VGA[dV]A[dL]V[dL]W[dV]W[dV]W[dV]W-NHCH2CH2OH)	1.23	+	17.7
